These results are taken from ChEMBL document CHEMBL4725402, “Discovery of thiapyran-pyrimidine derivatives as potential EGFR inhibitors” (Bioorg Med Chem, 2020).

Data set [1] concerns L02. Kind of data set: Cytotoxicity against human L02 cells assessed as reduction in cell viability measured after 72 hrs by MTT assay. It is filed as cell-based. The note with it: L02, 72 h.
Data set [2] concerns HeLa. Kind of data set: Antiproliferation activity against human HeLa cells assessed as reduction in cell viability measured after 72 hrs by MTT assay. It is filed as functional, cell-based.
The subject of data set [3] is A549. Kind of data set: Antiproliferation activity against human A549 cells assessed as reduction in cell viability measured after 72 hrs by MTT assay. It is filed as functional, cell-based. The note with it: A549, 72 h. In general terms: Formazan colour is commonly taken as a measure of viable cells.
Data set [4] in a line: Selectivity index, ratio of IC50 for human L02 cells to IC50 for human A549 cells assessed as reduction in cell viability measured after 72 hrs by MTT assay. It is filed as toxicity. The conditions noted are these: L02 cells versus A549 cells, read-out: Ratio IC50.
Data set [5] concerns NCI-H1975. Nature of the data set: Antiproliferation activity against human NCI-H1975 cells harboring EGFR T790M/L858R mutation assessed as reduction in cell viability measured after 72 hrs by MTT assay. Format: functional, cell-based. The note with it: NCI-H1975, 72 h.
In data set [6] the test system is MCF7. Nature of the data set: Antiproliferation activity against human MCF7 cells assessed as reduction in cell viability measured after 72 hrs by MTT assay. It is filed as functional, cell-based. The conditions noted are these: MCF7, 72 h.
The target of data set [7] is Epidermal growth factor receptor (Homo sapiens, UniProt P00533). Nature of the data set: Inhibition of wild type EGFR (unknown origin) using FAM-labelled peptide as substrate incubated for 10 mins in presence of ATP by Kinase Glo luminescence assay.
Epidermal growth factor receptor (Homo sapiens, UniProt P00533), sequence (P00533 whole entry): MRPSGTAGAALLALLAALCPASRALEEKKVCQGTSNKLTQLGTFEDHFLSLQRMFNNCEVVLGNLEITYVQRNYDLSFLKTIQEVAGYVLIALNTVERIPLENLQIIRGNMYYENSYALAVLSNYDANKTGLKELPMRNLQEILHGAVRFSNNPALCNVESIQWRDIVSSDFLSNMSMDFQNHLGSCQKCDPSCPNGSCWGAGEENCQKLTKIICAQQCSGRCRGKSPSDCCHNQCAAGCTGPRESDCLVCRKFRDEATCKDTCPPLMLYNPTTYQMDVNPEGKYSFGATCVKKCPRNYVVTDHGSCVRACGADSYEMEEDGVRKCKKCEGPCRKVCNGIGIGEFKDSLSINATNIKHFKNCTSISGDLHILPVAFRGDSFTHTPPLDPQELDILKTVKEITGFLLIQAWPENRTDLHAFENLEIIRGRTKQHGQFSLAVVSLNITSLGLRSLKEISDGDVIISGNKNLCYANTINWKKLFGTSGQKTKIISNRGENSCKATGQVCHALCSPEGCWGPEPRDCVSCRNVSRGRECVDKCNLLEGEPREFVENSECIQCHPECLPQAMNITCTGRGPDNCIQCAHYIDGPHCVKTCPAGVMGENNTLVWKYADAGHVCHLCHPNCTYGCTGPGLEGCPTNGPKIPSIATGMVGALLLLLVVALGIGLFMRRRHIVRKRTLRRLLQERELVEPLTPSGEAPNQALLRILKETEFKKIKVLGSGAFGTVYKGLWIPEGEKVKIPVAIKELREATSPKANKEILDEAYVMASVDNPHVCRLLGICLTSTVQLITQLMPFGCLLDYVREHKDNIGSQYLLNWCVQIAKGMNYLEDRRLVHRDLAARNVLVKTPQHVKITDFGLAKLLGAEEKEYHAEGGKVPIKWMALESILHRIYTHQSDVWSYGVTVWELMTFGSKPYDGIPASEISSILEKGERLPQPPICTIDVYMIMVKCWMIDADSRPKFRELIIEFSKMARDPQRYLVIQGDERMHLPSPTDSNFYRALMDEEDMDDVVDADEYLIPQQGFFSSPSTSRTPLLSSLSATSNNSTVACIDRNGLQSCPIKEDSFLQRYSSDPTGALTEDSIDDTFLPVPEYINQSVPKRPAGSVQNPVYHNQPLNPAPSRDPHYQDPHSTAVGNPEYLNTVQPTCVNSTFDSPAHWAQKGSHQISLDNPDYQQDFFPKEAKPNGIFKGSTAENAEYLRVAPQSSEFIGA
For data set [8], the target named is Epidermal growth factor receptor (Homo sapiens, UniProt P00533, T790M). Kind of data set: Inhibition of EGFR T790M mutant (unknown origin) using FAM-labelled peptide as substrate incubated for 10 mins fin presence of ATP by Kinase Glo luminescence assay.
Epidermal growth factor receptor (Homo sapiens, UniProt P00533, T790M), sequence (P00533 25-1210 T790M limits assumed): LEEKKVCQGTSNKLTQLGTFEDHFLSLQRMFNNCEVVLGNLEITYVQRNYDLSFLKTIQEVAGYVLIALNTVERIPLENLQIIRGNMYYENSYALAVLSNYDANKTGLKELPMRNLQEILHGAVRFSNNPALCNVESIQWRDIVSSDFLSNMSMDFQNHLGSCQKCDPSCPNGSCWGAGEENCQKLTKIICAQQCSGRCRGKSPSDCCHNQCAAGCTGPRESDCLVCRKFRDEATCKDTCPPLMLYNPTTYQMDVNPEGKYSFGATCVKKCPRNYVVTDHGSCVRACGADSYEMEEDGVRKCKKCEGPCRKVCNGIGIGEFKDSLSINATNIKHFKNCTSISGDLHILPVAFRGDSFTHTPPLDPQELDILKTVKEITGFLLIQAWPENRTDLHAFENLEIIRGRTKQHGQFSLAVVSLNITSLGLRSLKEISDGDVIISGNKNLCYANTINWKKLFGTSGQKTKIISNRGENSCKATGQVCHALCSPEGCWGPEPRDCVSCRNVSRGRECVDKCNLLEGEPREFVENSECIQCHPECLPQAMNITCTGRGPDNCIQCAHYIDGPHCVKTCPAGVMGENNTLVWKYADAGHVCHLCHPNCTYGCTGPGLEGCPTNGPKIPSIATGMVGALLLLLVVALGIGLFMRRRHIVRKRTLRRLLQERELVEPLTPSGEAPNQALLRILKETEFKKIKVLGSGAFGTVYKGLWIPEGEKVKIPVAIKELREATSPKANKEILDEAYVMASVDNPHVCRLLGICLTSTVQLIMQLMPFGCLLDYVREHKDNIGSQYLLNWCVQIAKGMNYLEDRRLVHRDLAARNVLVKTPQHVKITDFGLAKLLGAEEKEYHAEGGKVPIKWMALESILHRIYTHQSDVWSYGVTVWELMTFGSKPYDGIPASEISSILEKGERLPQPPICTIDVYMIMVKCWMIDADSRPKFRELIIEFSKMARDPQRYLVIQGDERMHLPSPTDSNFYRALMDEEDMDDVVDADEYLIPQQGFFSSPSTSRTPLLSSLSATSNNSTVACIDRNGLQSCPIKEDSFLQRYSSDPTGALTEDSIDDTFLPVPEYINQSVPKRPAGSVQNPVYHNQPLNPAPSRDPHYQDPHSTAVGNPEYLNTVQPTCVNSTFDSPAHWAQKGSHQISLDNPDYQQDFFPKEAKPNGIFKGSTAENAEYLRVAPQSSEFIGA
The species named for data set [9] is Homo sapiens. Nature of the data set: Inhibition of PI3K (unknown origin) at 1 uM relative to control.
Data set [10] deals with Vascular endothelial growth factor receptor 2 (Homo sapiens) (UniProt P35968). Kind of data set: Inhibition of KDR (unknown origin) at 1 uM relative to control.
Vascular endothelial growth factor receptor 2 (Homo sapiens), sequence (P35968 whole entry): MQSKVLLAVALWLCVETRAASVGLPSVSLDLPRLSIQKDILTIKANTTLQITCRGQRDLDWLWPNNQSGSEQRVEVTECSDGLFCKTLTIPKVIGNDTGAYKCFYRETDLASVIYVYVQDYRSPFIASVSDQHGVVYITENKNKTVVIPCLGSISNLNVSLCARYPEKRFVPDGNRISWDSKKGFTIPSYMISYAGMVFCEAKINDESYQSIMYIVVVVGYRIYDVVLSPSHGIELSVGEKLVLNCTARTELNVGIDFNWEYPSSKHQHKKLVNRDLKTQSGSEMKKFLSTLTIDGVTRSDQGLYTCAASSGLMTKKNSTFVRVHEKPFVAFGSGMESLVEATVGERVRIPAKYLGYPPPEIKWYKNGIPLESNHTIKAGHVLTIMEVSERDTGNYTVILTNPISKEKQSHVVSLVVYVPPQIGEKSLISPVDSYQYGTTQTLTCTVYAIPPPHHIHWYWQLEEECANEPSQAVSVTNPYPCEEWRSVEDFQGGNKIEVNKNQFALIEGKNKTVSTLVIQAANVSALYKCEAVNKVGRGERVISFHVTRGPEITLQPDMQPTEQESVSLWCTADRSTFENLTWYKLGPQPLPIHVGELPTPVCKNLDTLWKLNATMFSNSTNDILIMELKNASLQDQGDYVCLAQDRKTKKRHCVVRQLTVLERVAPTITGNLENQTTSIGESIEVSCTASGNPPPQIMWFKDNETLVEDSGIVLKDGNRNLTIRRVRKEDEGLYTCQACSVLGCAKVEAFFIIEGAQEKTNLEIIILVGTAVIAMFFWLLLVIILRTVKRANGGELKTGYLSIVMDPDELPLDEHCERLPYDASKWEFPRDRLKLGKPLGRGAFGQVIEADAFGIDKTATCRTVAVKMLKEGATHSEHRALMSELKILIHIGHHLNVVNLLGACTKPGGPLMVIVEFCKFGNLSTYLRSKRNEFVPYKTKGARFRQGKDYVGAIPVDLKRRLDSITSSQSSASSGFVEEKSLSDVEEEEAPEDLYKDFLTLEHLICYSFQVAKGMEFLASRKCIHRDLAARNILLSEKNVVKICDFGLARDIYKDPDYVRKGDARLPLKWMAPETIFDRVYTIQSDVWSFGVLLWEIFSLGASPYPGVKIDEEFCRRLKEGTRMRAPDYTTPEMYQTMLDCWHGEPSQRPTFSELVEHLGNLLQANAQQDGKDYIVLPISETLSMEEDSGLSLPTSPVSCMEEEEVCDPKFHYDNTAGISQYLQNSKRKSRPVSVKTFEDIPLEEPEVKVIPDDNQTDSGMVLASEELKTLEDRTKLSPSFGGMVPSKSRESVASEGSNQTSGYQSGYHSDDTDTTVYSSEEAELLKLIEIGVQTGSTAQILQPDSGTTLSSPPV

In general, IC50 refers to the point on the concentration scale where inhibition reaches its midpoint. Turning to `CC/C=C/C(=O)Nc1cccc(Oc2nc(Nc3cccc(C#N)c3)nc3c2CSCC3)c1`, the 50% inhibitory concentration (IC50) was > 50 µM in [1]; 31.8 µM in data set [2]; 10.1 µM in data set [3]; 17.2 µM in [5]; 15.8 µM in data set [6]. Also, the selectivity ratio at 72 h in data set [4] is > 4.95.
For the compound `C=C(F)C(=O)Nc1cccc(Oc2nc(Nc3cccc(OC)c3)nc3c2CSCC3)c1`, the 50% inhibitory concentration (IC50) in data set [1] is 41.2 µM; in data set [2] it was 44.8 µM; in data set [3], 29.6 µM; in data set [5], 26.1 µM; in data set [6], > 50 µM. In data set [4], the selectivity ratio at 72 h came to 1.39.
`CCC/C=C/C(=O)Nc1cccc(Oc2nc(Nc3cccc(OC)c3)nc3c2CSCC3)c1`: the half-inhibitory concentration (IC50) is > 50 µM in data set [1]; 33.8 µM in [2]; 11.8 µM in data set [3]; 11.9 µM in [5]; 32 µM in data set [6]. In addition, the selectivity ratio at 72 h in data set [4] is > 4.23.
On to `C=C(F)C(=O)Nc1cccc(Oc2nc(Nc3ccn(C)n3)nc3c2CSCC3)c1`, for which the IC50 is 47.8 µM in data set [1]; > 50 µM in [2]; > 50 µM in data set [3]; 36.3 µM in data set [5]; > 50 µM in [6]. In addition, in data set [4], the selectivity ratio at 72 h was < 0.96.
Regarding `CC/C=C/C(=O)Nc1cccc(Oc2nc(Nc3cccc(OC)c3)nc3c2CSCC3)c1`, the IC50 in data set [1] was > 50 µM; in data set [2] it was 27.2 µM; in [3] it was 17.2 µM; in data set [5], 10.8 µM; in [6] it was 24.2 µM. In data set [4], the selectivity ratio at 72 h was > 2.9.
For `C/C=C/C(=O)Nc1cccc(Oc2nc(Nc3ccc(OC)cc3)nc3c2CSCC3)c1`, the IC50 in [1] is > 50 µM; in data set [2] it was > 50 µM; in [3], 22.2 µM; in data set [6], 24.3 µM. For the same compound, the selectivity ratio at 72 h in data set [4] was > 2.25.
For `COc1ccc(Nc2nc3c(c(Oc4cccc(NC(=O)C=C(C)C)c4)n2)CSCC3)cn1`, the half-maximal inhibitory concentration (IC50) is > 50 µM in data set [1], 29.2 µM in data set [2], 16.8 µM in data set [3] and 22.2 µM in data set [6]. In data set [4], the selectivity ratio at 72 h is > 2.97.
Regarding `COc1ccc(Nc2nc3c(c(Oc4cccc(NC(=O)/C=C/C(C)C)c4)n2)CSCC3)cc1`, the IC50 in data set [1] is > 50 µM; in data set [2], 22.9 µM; in data set [3], 25.9 µM; in data set [6], > 50 µM. Further, in data set [4], the selectivity ratio at 72 h was > 1.93.
`CCC/C=C/C(=O)Nc1cccc(Oc2nc(Nc3ccn(C)n3)nc3c2CSCC3)c1`: the concentration for half-maximal inhibition (IC50) is > 50 µM in [1]; 17 µM in data set [2]; 8.19 µM in data set [3]; > 1 µM in [7]; 13.6 µM in data set [5]; > 1 µM in data set [8]. In [6], the IC50 amounted to 22.6 µM. Moreover, the selectivity ratio at 72 h in data set [4] is > 6.1.
For `C=CC(=O)Nc1cccc(Oc2nc(Nc3cccc(OC)c3)nc3c2CSCC3)c1`, the IC50 in data set [1] was 48.9 µM; in data set [2], 28.9 µM; in data set [3], 10.1 µM; in data set [5], 9.64 µM; in data set [6] it was > 50 µM.
Regarding `CCC/C=C/C(=O)Nc1cccc(Oc2nc(Nc3ccc(OC)cc3)nc3c2CSCC3)c1`, the IC50 in [1] was > 50 µM; in [2], 12.8 µM; in data set [3], 11.9 µM; in data set [5] it was 18.9 µM; in data set [6], > 50 µM. In [4], the selectivity ratio at 72 h was > 4.21.
`COc1cccc(Nc2nc3c(c(Oc4cccc(NC(=O)/C=C/C(C)C)c4)n2)CSCC3)c1`: the IC50 is > 50 µM in [1]; > 50 µM in data set [2]; 25.3 µM in data set [3]; 25.1 µM in data set [5]; 21.8 µM in data set [6]. Further, in [4], the selectivity ratio at 72 h was > 1.98.
`C/C=C/C(=O)Nc1cccc(Oc2nc(Nc3cccc(OC)c3)nc3c2CSCC3)c1`: the IC50 is > 50 µM in data set [1]; 13.8 µM in data set [2]; 21.1 µM in data set [3]; 12.5 µM in [5]; 23.4 µM in [6]. In data set [4], the selectivity ratio at 72 h was > 2.37.
In the case of `CC/C=C/C(=O)Nc1cccc(Oc2nc(Nc3ccc(OC)nc3)nc3c2CSCC3)c1`, the concentration for half-maximal inhibition (IC50) was > 50 µM in [1]; 31.2 µM in data set [2]; 13.1 µM in data set [3]; 13.2 µM in data set [5]; 31.5 µM in data set [6]. Further, the selectivity ratio at 72 h in [4] was > 3.81.
For the compound `C/C=C/C(=O)Nc1cccc(Oc2nc(Nc3ccc(OC)nc3)nc3c2CSCC3)c1`, the IC50 is > 50 µM in data set [1]; 16.5 µM in [2]; 8.04 µM in data set [3]; > 1 µM in data set [7]; 13.9 µM in data set [5]; > 1 µM in [8]. Also, the IC50 in data set [6] is 21.1 µM. For the same compound, in data set [4], the selectivity ratio at 72 h is > 6.22.
Turning to `COc1cccc(Nc2nc3c(c(Oc4cccc(NC(=O)C=C(C)C)c4)n2)CSCC3)c1`, the IC50 in [1] is > 50 µM; in data set [2], 19.1 µM; in data set [3], 19.8 µM; in data set [5] it was 21.9 µM; in [6] it was > 50 µM. Also, in data set [4], the selectivity ratio at 72 h is > 2.52.
With `CCC/C=C/C(=O)Nc1cccc(Oc2nc(Nc3ccc(OC)nc3)nc3c2CSCC3)c1`, the 50% inhibitory concentration (IC50) in data set [1] was > 50 µM; in data set [2] it was 15.3 µM; in data set [3], 10.8 µM; in [5] it was 17.9 µM; in data set [6] it was 26.8 µM. In addition, the selectivity ratio at 72 h in data set [4] is > 4.62.
Consider `C/C=C/C(=O)Nc1cccc(Oc2nc(Nc3ccn(C)n3)nc3c2CSCC3)c1`, for which the IC50 is > 50 µM in [1]; > 50 µM in data set [2]; > 50 µM in data set [3]; 35.9 µM in data set [5]; 40 µM in data set [6].
With `CC(C)/C=C/C(=O)Nc1cccc(Oc2nc(Nc3cccc(C#N)c3)nc3c2CSCC3)c1`, the 50% inhibitory concentration (IC50) in data set [1] was > 50 µM; in data set [2], 22.8 µM; in data set [3], 35.9 µM; in data set [6], 29.6 µM. Moreover, the selectivity ratio at 72 h in data set [4] is > 1.39.
On to `CC/C=C/C(=O)Nc1cccc(Oc2nc(Nc3ccn(C)n3)nc3c2CSCC3)c1`, for which the IC50 in data set [1] was > 50 µM; in [2], > 50 µM; in [3], 36.8 µM; in data set [6], > 50 µM. The selectivity ratio at 72 h in data set [4] is > 1.36.
With `C/C=C/C(=O)Nc1cccc(Oc2nc(Nc3cccc(C#N)c3)nc3c2CSCC3)c1`, the 50% inhibitory concentration (IC50) in data set [1] was > 50 µM; in data set [2], 12.8 µM; in [3] it was 17.2 µM; in [5], 28.1 µM; in [6], 21.4 µM. Besides, the selectivity ratio at 72 h in data set [4] was > 2.91.
For `CC(C)/C=C/C(=O)Nc1cccc(Oc2nc(Nc3ccn(C)n3)nc3c2CSCC3)c1`, the IC50 in [1] is > 50 µM; in data set [2] it was 40.1 µM; in data set [3] it was 33.5 µM; in data set [6], > 50 µM. In addition, the selectivity ratio at 72 h in data set [4] was > 1.49.
As a reminder, the inhibition is the drop in the measured response relative to a control, in per cent. Lower therefore signals a response near the control. Consider `Oc1cccc(-c2nc(N3CCOCC3)c3oc4ncccc4c3n2)c1`, for which the inhibition in [9] is 99.8%; in data set [10], 2.4%.
For `CC(C)=CC(=O)Nc1cccc(Oc2nc(Nc3cccc(C#N)c3)nc3c2CSCC3)c1`, the IC50 in data set [1] is > 50 µM; in data set [2], 29.2 µM; in data set [3] it was 36.9 µM; in data set [6], > 50 µM. The selectivity ratio at 72 h in data set [4] is > 1.36.
Turning to `COc1ccc(Nc2nc3c(c(Oc4cccc(NC(=O)/C=C/C(C)C)c4)n2)CSCC3)cn1`, the IC50 is > 50 µM in [1], 27.8 µM in [2], 24.2 µM in [3] and 37.1 µM in data set [6]. For the same compound, the selectivity ratio at 72 h in data set [4] is > 2.06.
For `CC/C=C/C(=O)Nc1cccc(Oc2nc(Nc3ccc(OC)cc3)nc3c2CSCC3)c1`, the half-maximal inhibitory concentration (IC50) is > 50 µM in [1]; 27.2 µM in [2]; 20.1 µM in [3]; 17.2 µM in [5]; 31.4 µM in [6]. Also, the selectivity ratio at 72 h in [4] is > 2.49.
`COc1ccc(Nc2nc3c(c(Oc4cccc(NC(=O)C=C(C)C)c4)n2)CSCC3)cc1`: the IC50 was > 50 µM in [1], 19.1 µM in data set [2], 26.9 µM in [3] and > 50 µM in [6]. For the same compound, the selectivity ratio at 72 h in data set [4] is > 1.86.
As for `C=CC(=O)Nc1cccc(Oc2nc(Nc3ccn(C)n3)nc3c2CSCC3)c1`, the IC50 in data set [1] was > 50 µM; in [2] it was 25.8 µM; in data set [3] it was 18.6 µM; in [6] it was > 50 µM. The selectivity ratio at 72 h in [4] was > 2.7.
As to `CC(C)=CC(=O)Nc1cccc(Oc2nc(Nc3ccn(C)n3)nc3c2CSCC3)c1`, the IC50 in data set [1] is > 50 µM; in data set [2], > 50 µM; in [3] it was 44.2 µM; in [6], > 50 µM. For the same compound, in data set [4], the selectivity ratio at 72 h was > 1.13.
As for `C=CC(=O)Nc1cccc(Oc2nc(Nc3ccc(OC)nc3)nc3c2CSCC3)c1`, the half-maximal inhibitory concentration (IC50) in data set [1] is > 50 µM; in data set [2], 26.2 µM; in data set [3], 14.6 µM; in [5], 13.9 µM; in [6] it was 17.2 µM. In addition, the selectivity ratio at 72 h in [4] is > 3.43.
With `C=C(C)C(=O)Nc1cccc(Oc2nc(Nc3ccn(C)n3)nc3c2CSCC3)c1`, the IC50 in data set [1] is > 50 µM; in data set [2], > 50 µM; in [3], 46.9 µM; in [6], > 50 µM. Besides, in data set [4], the selectivity ratio at 72 h was > 1.06.
